Measurements published in PubChem BioAssay (NCI).
Values joined by “and” are separate entries in the source; they are usually repeats but may differ in a detail not shown here. Identical values can stand only once.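 Test compounds were applied to cells in 96-well plates for 48 hours at 5 doses. Here, GI50 denotes the concentration required for 50% inhibition of growth. TGI denotes the concentration required for complete inhibition of growth.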

Experiments:
Assay in all cases: inhibition of tumour cell growth, NCI panel, 48 h
HCT-116 colon = test system: HCT-116 colon
MALME-3M melanoma = test system: MALME-3M melanoma
SK-MEL-2 melanoma = test system: SK-MEL-2 melanoma
SF-539 CNS = test system: SF-539 CNS
KM12 colon = test system: KM12 colon
ACHN renal = test system: ACHN renal
NCI-H460 lung = test system: NCI-H460 lung
UACC-62 melanoma = test system: UACC-62 melanoma
SNB-75 CNS = test system: SNB-75 CNS
EKVX NSCLC = test system: EKVX NSCLC

SMILES | TGI (HCT-116 colon) | TGI (MALME-3M melanoma) [µM] | TGI (SK-MEL-2 melanoma) | TGI (SF-539 CNS) | TGI (KM12 colon) | TGI (ACHN renal) | TGI (NCI-H460 lung) | TGI (UACC-62 melanoma) | TGI (SNB-75 CNS) | TGI (EKVX NSCLC) | GI50 (HCT-116 colon) | GI50 (MALME-3M melanoma) [µM] | GI50 (SK-MEL-2 melanoma) | GI50 (SF-539 CNS) | GI50 (KM12 colon) | GI50 (ACHN renal) | GI50 (NCI-H460 lung) | GI50 (UACC-62 melanoma) | GI50 (SNB-75 CNS) | GI50 (EKVX NSCLC)
Nc1c(C(=O)Nc2ccc([As](=O)(O)O)cc2)cnc2nnnn12 | > 100 µM | > 100 | > 100 µM | > 100 µM | > 100 µM | > 100 µM | > 100 µM | > 100 µM | > 100 µM | > 100 µM | – | – | – | – | – | – | – | – | – | –
Cc1ccc(C(=O)/C(=C/c2ccc([N+](=O)[O-])cc2)S(=O)Cc2ccccc2)cc1 (stereo not given) | 2.99 µM | 3.54 | 3.26 µM | 3.1 µM | 3.4 µM | 2.92 µM | 4.92 µM | 2.79 µM | 2.73 µM | 3.13 µM | 1.57 µM | 1.69 | 1.57 µM | 1.69 µM | 1.56 µM | 1.56 µM | 1.83 µM | 1.3 µM | 1.27 µM | 1.6 µM
CSc1nc2c(c(O)c(C)c(=O)n2C2OC(COC(C)=O)C(OC(C)=O)C(OC(C)=O)C2OC(C)=O)c(=O)n1C (stereo not given) | > 100 µM | > 100 | > 100 µM | > 100 µM | > 100 µM | > 100 µM | > 100 µM | > 100 µM | > 100 µM | > 100 µM | – | – | – | – | – | – | – | – | – | –
COC(=O)c1nc(NN)[nH]c(=O)c1CCCCCc1c(C(=O)OC)[nH]c(NN)cc1=O | > 100 µM | > 100 | > 100 µM | > 100 µM | > 100 µM | > 100 µM | > 100 µM | > 100 µM | > 100 µM | > 100 µM | – | – | – | – | – | – | – | – | – | –
COc1ccc(C(=O)N2c3ccccc3Sc3ccccc32)c(F)c1 | > 100 µM | > 100 | > 100 µM | 3.36 µM | > 100 µM | > 100 µM | > 100 µM | > 100 µM | 34 µM | > 100 µM | 0.393 µM | 16.2 | 0.531 µM | 0.409 µM | 0.489 µM | 0.831 µM | 0.485 µM | 0.382 µM | 0.288 µM | 2.72 µM
Cc1ccc(C(=O)Nc2ccc(CN3CCN(C)CC3)c(C(F)(F)F)c2)cc1C#Cc1cnc(N)c2ccc(F)cc12 | 0.533 µM | 0.597 | 1.44 µM | 1.24 µM | 0.778 µM | 0.401 µM | 0.647 µM | 1.02 µM | 0.863 µM | 4.73 µM | 0.192 µM | 0.141 | 0.27 µM | 0.527 µM | 0.186 µM | 0.0791 µM | 0.232 µM | 0.329 µM | 0.256 µM | 1.06 µM
CC12CC3(C)CC(C)(C1)CC(N=[N+]=[N-])(C2)C3 | > 100 µM | > 100 | > 100 µM | > 100 µM | > 100 µM | > 100 µM | > 100 µM | > 100 µM | > 100 µM | > 100 µM | – | – | – | – | – | – | – | – | – | –
Cc1cc(Cl)ccc1NC(=O)C(=O)Cc1nc2ccc(C(=O)c3ccccc3)cc2[nH]c1=O | > 100 µM | > 100 | > 100 µM | > 100 µM | > 100 µM | > 100 µM | > 100 µM | > 100 µM | > 100 µM | > 100 µM | – | – | – | – | – | – | – | – | – | –
O=C(O)c1cc[c]([Hg][S]c2ncnc3nc[nH]c23)cc1 | 22.3 µM | 17.9 | 19.4 µM | 25.6 µM | > 50.1 µM | 23.7 µM | 28.5 µM | 15.4 µM | 19.4 µM | 34.9 µM | 4.89 µM | 3.35 | 4.83 µM | 7.39 µM | 14.3 µM | 11.6 µM | 13.1 µM | 2.88 µM | 1.45 µM | 19.2 µM
Fc1cccc(Cl)c1C1SCc2nc3ccccc3n21 (stereo not given) | 55.1 µM | 45.8 | 51 µM | 44.4 µM | 59.5 µM | > 100 µM | > 100 µM | 37.5 µM | > 100 µM | > 100 µM | – | – | – | – | – | – | – | – | – | –
COC(=O)c1ccc2c(c1)C(NC(C)=O)CCc1cc(OC)c(OC)c(OC)c1-2 (stereo not given) | 0.391 µM | > 100 | 6.58 µM | 0.056 µM | 0.219 µM | > 100 µM | 3.23 µM | > 100 µM | 15.1 µM | > 100 µM | – | – | – | – | – | – | – | – | – | –
CN1CCCN(CCNc2nccc(-c3c(-c4cccc(O)c4)nc4sccn34)n2)S1(=O)=O | 14.9 µM and 18.8 µM | 3.91 | 7.29 µM and 6.74 µM | 75 µM and > 100 µM | 32.5 µM and 55.8 µM | 75 µM and > 100 µM | 75 µM and > 75.9 µM | 1.4 µM and 2.22 µM | 75 µM and > 100 µM | 75 µM and > 100 µM | 2.96 µM and 4.39 µM | 0.0583 | 2.37 µM and 2.15 µM | 18.7 µM and 22.2 µM | 11.7 µM and 9.82 µM | 2.72 µM and 2.91 µM | 4.41 µM and 4.72 µM | 0.0417 µM and 0.0537 µM | 1.47 µM and 2.19 µM | 31.1 µM and 30.3 µM
CNC(=O)Nc1ccc(-c2nc(N3CCOCC3)nc3c2cnn3C2CCOCC2)cc1 | > 100 µM | 0.44 | 3.56 µM | 1.36 µM | > 100 µM | 1.74 µM | > 100 µM | 1.19 µM | 0.448 µM | 2.42 µM | 0.422 µM | 0.0509 | 0.382 µM | 0.205 µM | 0.384 µM | 0.225 µM | 0.131 µM | 0.182 µM | 0.045 µM | 0.18 µM
CC1(C)CCC(C)(C)c2cc(C(=O)Nc3ccc(C(=O)O)cc3)ccc21 | 37.4 µM | > 100 | 44.7 µM | 30.3 µM | > 61.4 µM | > 61.2 µM | 46.9 µM | 41.2 µM | > 100 µM | > 100 µM | – | – | – | – | – | – | – | – | – | –
COC1/C=C/OC2(C)Oc3c(C)c(O)c4c(c3C2=O)C(=O)C=C(NC(=O)/C(C)=C\C=C\C(C)C(OC=O)C(C)C(O)C(C)C(OC(C)=O)C1C)C4=O (stereo not given) | 14.1 µM | 28.7 | 36.6 µM | 32.9 µM | 45.9 µM | 21.5 µM | 42 µM | 27.9 µM | 41.1 µM | 25.8 µM | – | – | – | – | – | – | – | – | – | –
CC(C)N(C(C)C)[PH+]1O[PH+](N(C(C)C)C(C)C)O[PH+](N(C(C)C)C(C)C)O[PH+](N(C(C)C)C(C)C)O[PH+](N(C(C)C)C(C)C)O1.[C-]#[O+].[C-]#[O+].[C-]#[O+].[C-]#[O+].[C-]#[O+].[C-]#[O+].[C-]#[O+].[Cr].[Cr] (stereo not given) | > 100 µM | > 100 | > 100 µM | > 100 µM | > 100 µM | > 100 µM | > 100 µM | > 100 µM | > 100 µM | > 100 µM | > 100 µM | > 100 | > 100 µM | > 100 µM | > 100 µM | > 100 µM | > 100 µM | > 100 µM | 75.4 µM | > 100 µM
